Tests used:
Assay type in all cases: binding
[1] = tested on: calf thymus DNA (hybrid DNA); test: Detection of hybrid DNA fragment using fluorescent intercalator (fluorometry); conditions: intercalator 1 M; calf thymus DNA 100 μM; 5 mM phosphate buffer pH 7.0, sodium sulfate 5 mM; excitation 434 nm
Protocol: (§1) The fluorescent intercalator (1 M) prepared above was placed in an aqueous 5 mM phosphate buffer solution (pH 7.0) containing a calf thymus DNA (hybrid DNA, 100 μM) and sodium sulfate (5 mM). In the buffer solution, the fluorescent intercalator was intercalated into the hybrid DNA. The fluorescence emitted by the buffer solution containing the hybrid DNA having the intercalated fluorescent intercalator was fluorometrically measured in the wavelength region of 440 to 600 nm by exciting with a light of 434 nm.
(§2) The fluorescence emitted by the same buffer solution containing no calf thymus DNA (i.e., hybrid DNA) was also measured in the same manner.

[2] = tested on: calf thymus DNA (hybrid DNA); test: Rate of dissociation of intercalator from hybrid DNA (SDS addition, fluorescence over time); conditions: SDS final concentration 0.5 vol. %; same buffer solution as the fluorescence test
Protocol: (§3) To the buffer solution containing hybrid DNA and intercalator which was employed above was added an aqueous sodium dodecylsulfate (SDS) solution to give a final SDS concentration of 0.5 vol. %. After the SDS solution was added, variation of the fluorescence strength at a lapse of time was measured. From the variation data, the dissociation rate was determined. The dissociation rate was 0.02/sec.

[3] = tested on: single stranded DNA (calf thymus DNA heated to 90° C. for 20 min.); test: Fluorometry with single stranded DNA in place of hybrid DNA; conditions: procedures of Example 1, excitation 434 nm
Protocol: as §1, §2
(§4) The same calf thymus DNA (hybrid DNA) as employed in Example 1 was heated to 90° C. for 20 min., to give a single stranded DNA.
(§5) The procedures of Example 1 were repeated using thus prepared single stranded DNA in place of the hybrid DNA.

[4] = tested on: single stranded DNA (calf thymus DNA heated to 90° C. for 20 min.); test: Rate of dissociation of intercalator from single stranded DNA; conditions: determined in the same manner as in Example 1 (SDS 0.5 vol. %)
Protocol: as §3, §4, §5

| Compound | fluorescence strength at 475 nm, buffer solution containing hybrid DNA relative to buffer solution containing no hybrid DNA [1] | dissociation rate from hybrid DNA [2] | fluorescence strength at 475 nm, buffer solution containing single stranded DNA relative to buffer solution containing no single stranded DNA [3] | dissociation rate from single stranded DNA [4] |
| --- | --- | --- | --- | --- |
| COc1ccc2nc3cc(Cl)ccc3c(N)c2c1 [9-amino-6-chloro-2-methoxyacridine, reference compound] | approx. 6 times | 19.0 s⁻¹ |  |  |
| N,N-bis{3-[4-(3-(6-chloro-9-imino-2-methoxyacridinyl)propyl)-1,4-diazacyclohexyl]propyl}naphthalenediimide | not high |  |  |  |
| N-{3-[4-(3-( 6-chloro-9-imino-2-methoxyacridinyl)propyl)-1,4-diazacyclohexyl]propyl}-N′-{3-[4-(3-aminopropyl)-1,4-diazacyclohexyl]propyl}naphthalenediimide | approx. 30 times | 0.02 s⁻¹ | approx. 16 times | 1.2 s⁻¹ |

— patent US6506567B2, “Water-soluble flourescent intercalator compound” (Fuji Photo Film Co., Ltd., priority 2000, dated 2003)
